# From patent US6759241B1, “Adjuvant comprising a lipopolysaccharide antagonist” (priority 1999, dated 2004)
# Where no end group is shown, it is not given here.
# Columns and labels:
# [1] = system: human peripheral blood mononuclear cells (PBMCs); test: LPS antagonist activity: TNFα secretion by stimulated human PBMCs (capture ELISA); format: cell-based; conditions: 1 μg/ml + W3110 (10 ng/ml), 8 hr
# Experimental: W3110 LPS (also cultured at 37° C.) from 1 ng/ml to 100 ng/ml alone and W3110 LPS (10 ng/ml) mixed with synthetic lipid IVA (1 μg/ml) were used as controls. For this, PBMCs were obtained from 50 ml of whole blood and resuspended in complete medium (CM; RPMI containing pyruvate, glutamine, PenStrep, and 10% endotoxin-free human AB serum (Life Technologies) at a density of 6×10^6 PBMCs/ml. CM containing W3110 LPS, MLK986 LPS or synthetic lipid IVA was placed into duplicate wells of a 96-well flat bottom culture plate (Costar) at double the target final concentration. An equal volume of CM containing the PBMCs then was added to these wells and the culture plates were incubated at 37° C. in 5% CO2 for 8 hr. The supernatants were then removed and stored at […] Quantitation of TNFα, IL-1β, and IL-6 in these culture supernatants was achieved by capture ELISA (R&D Systems).
# BALB/c mice [2] = test: Adjuvant activity with protein antigen gp120: anti-gp120 serum IgG by ELISA; format: in vivo
# Experimental: Vaccine preparations containing an LPS antagonist and a protein antigen can be prepared in the following manner. Each vaccine preparation contained 5 μg of fully glycosylated endotoxia-free HIV-1MN gp120 (Virostat Cat. No. 8919, Lot AM735). Preparations comprised of gp120 and LPS antagonist were formulated essentially as outlined in Example 2 above except that each dose contained 5 μg of gp120 combined with a range of LPS antagonist doses (from 1 μg to 10 μg). The LPS antagonist was isolated from MLK986 cultured at 37° C. as described above.
# Groups of 3 BALB/c mice were given a single dose of a given preparation of gp120 and LPS antagonist subcutaneously (primary vaccination). To determine the immunogenicity of the antigen in the absence of LPS antagonist, a group of BALB/c mice were vaccinated with 5 μg gp 120 formulated alone. For comparative purposes, an additional group of mice were vaccinated with 5 μg of gp120 formulated with Alum, as described (Coligan, et al., 1994, supra).
# To measure the immunogenicity of each formulation, sera were collected from the mice in each group before and on day 14 after primary vaccination, as described in Example 2 above. On day 21 after the primary vaccination, mice were given a booster vaccination containing […] of gp120 formulated with matched doses of LPS antagonist, as was given in the primary vaccination. Ten and 17 days after the boost, venous blood was collected from the mice, and sera were obtained as outlined above. The level of anti-gp120 IgG in pooled serum samples was determined by ELISA as described in Example 2 above, except that gp120 was used in place of Hep-Tat in the first coating step. The results of the ELISA were obtained by reading the optical density of each well using a Molecular Dynamics ELISA plate reader and are shown in Table 3 below. The data are presented as dilution of the sera to achieve 50% saturation.
# BALB/c mice [3] = test: Adjuvant activity with peptide antigen Hep-Tat: Hep-Tat-specific serum IgG by ELISA; format: in vivo
# Experimental: Vaccine preparations containing a peptide antigen and an LPS antagonist were prepared in the following manner. Each vaccine preparation contained […] of the vaccine peptide (herein designated “Hep-Tat”) that corresponds to the heparin-binding domain of the HIV-1 regulatory protein Tat and is comprised of the following sequence (GLGIS YGRKKRRQR; SEQ ID NO: 1). The peptide antigen was prepared synthetically as a Multiple Antigen Peptide (MAPS;Genosys). To formulate the preparations comprised of Hep-Tat and LPS antagonist (purified as outlined above), […] of Hep-Tat was combined with a range of LPS antagonist doses (from […]). The LPS antagonist was isolated from MLK986 cultured at 37° C. as described in. Example 1.
# Groups of three BAL Blc mice were injected intraperitoneally with a single dose of a given preparation of Hep-Tat and LPS antagonist (i.e., primary vaccination). To determine the immunogenicity of the antigen in the absence of LPS antagonist, a group of BALB/c mice were vaccinated with 50 μg Hep-Tat formulated-alone. For comparative purposes, an additional group of mice was vaccinated with 50 μg Hep-Tat formulated with Alum, as described (Coligan, et al., 1994, supra).
# To measure the immunogenicity of each formulation, venous blood was collected from the mice in each group before and on day 14 after primary vaccination, as described (Coligan, et al., 1994, supra). Serum was then obtained from each of these blood samples using standard techniques (Coligan, et al., 1994, supra). On day 21 after the primary vaccination, mice were given a booster vaccination containing the same dose of Hep-Tat and LPS antagonist or alum as was given in the primary vaccination. Seven days after the boost, venous blood was collected from the mice in each, and sera were obtained as outlined above. Each of the serum samples from individual groups were pooled and the level of Hep-Tat-specific IgG was ascertained by ELISA. In short, plastic 96 well ELISA plates (Immunol 2 Dynatech) were coated with Hep-Tat, by adding […] of Hep-Tat at 10 μg/ml suspended in PBS (Phosphate Buffer Saline) pH 7.4 in each well, and incubating overnight at 4° C. The plates were subsequently washed to remove unbound peptide and then 100 μl of blocking solution (comprised of 1% (w/v) Bovine Serum Albumin (BSA; Sigma) suspended in PBS) was added to each well. […] The result of the ELISA were obtained by reading the optical density of each well using a Molecular Dynamics ELISA plate reader. […]
# [4] = Pre (before primary vaccination), pooled sera
compound,measurement,setting,value
CCCCCCCCCCC[C@@H](O)CC(=O)N[C@H]1[C@H](OC[C@H]2O[C@H](OP(=O)(O)O)[C@H](NC(=O)C[C@H](O)CCCCCCCCCCC)[C@@H](OC(=O)C[C@H](O)CCCCCCCCCCC)[C@@H]2O)O[C@H](CO)[C@@H](OP(=O)(O)O)[C@@H]1OC(=O)C[C@H](O)CCCCCCCCCCC [Lipid IVA],TNFa,[1],<30 pg/mL
Gp120: fully glycosylated endotoxin-free HIV-1MN gp120 (Virostat Cat. No. 8919),"Gp120-specific serum antibodies (anti-gp120 IgG), dilution of the sera to achieve 50% saturation","BALB/c mice [2]; 5 μg gp120 alone, subcutaneous, Day 14",<10
same,immunogenicity of the antigen dose,"BALB/c mice [2]; 5 μg of gp120 formulated with Alum, preliminary experiments",marginally immunogenic
same,"Gp120-specific serum antibodies (anti-gp120 IgG), dilution of the sera to achieve 50% saturation",BALB/c mice [2]; [4],−10
same,"Gp120-specific serum antibodies (anti-gp120 IgG), dilution of the sera to achieve 50% saturation","BALB/c mice [2]; gp120 alone, subcutaneous, boosted, Day 21",<10
"Hep-Tat: vaccine peptide, heparin-binding domain of HIV-1 Tat (GLGIS YGRKKRRQR; SEQ ID NO: 1), Multiple Antigen Peptide (GLGISYGRKKRRQR; also: multiple antigen peptide format)","Tat-specific antibodies (Hep-Tat-specific IgG), dilution of the sera to achieve the 50% saturation","BALB/c mice [3]; 50 μg Hep-Tat alone, intraperitoneal, boosted, Day 21",<10
same,"Tat-specific antibodies (Hep-Tat-specific IgG), dilution of the sera to achieve the 50% saturation","BALB/c mice [3]; 50 μg Hep-Tat alone, intraperitoneal, Day 14",<10
same,immunogenicity of the antigen dose,"BALB/c mice [3]; 50 μg of Hep-Tat formulated with Alum (Pierce), preliminary experiments",marginally immunogenic
same,"Tat-specific antibodies (Hep-Tat-specific IgG), dilution of the sera to achieve the 50% saturation",BALB/c mice [3]; [4],<10
